# In US9340590B2 (priority 2011, dated 2016):
# Positions of bridges follow the written chain, without caps; N, C: chain ends. Residues, ends and D or L forms follow the SMILES beside them.
# How the values were obtained:
# Assay in all cases: cell-based
# hNav1.3 = hNav1.3 (Homo sapiens, UniProt Q9NY46); conditions: IonWorks Quattro, use-dependent block, hNav1.3; read-out: IWQ Use Nav1.3
# hNav1.7 = hNav1.7 (Homo sapiens, UniProt Q15858); type: cell-based; conditions: IonWorks Quattro, use-dependent block, hNav1.7; read-out: IWQ Use Nav1.7
# hNav1.5 = hNav1.5 (Homo sapiens, UniProt Q14524); conditions: IonWorks Quattro, use-dependent block, hNav1.5; read-out: IWQ Use Nav1.5
# Sequence of hNav1.5 (Q14524 whole entry, looked up): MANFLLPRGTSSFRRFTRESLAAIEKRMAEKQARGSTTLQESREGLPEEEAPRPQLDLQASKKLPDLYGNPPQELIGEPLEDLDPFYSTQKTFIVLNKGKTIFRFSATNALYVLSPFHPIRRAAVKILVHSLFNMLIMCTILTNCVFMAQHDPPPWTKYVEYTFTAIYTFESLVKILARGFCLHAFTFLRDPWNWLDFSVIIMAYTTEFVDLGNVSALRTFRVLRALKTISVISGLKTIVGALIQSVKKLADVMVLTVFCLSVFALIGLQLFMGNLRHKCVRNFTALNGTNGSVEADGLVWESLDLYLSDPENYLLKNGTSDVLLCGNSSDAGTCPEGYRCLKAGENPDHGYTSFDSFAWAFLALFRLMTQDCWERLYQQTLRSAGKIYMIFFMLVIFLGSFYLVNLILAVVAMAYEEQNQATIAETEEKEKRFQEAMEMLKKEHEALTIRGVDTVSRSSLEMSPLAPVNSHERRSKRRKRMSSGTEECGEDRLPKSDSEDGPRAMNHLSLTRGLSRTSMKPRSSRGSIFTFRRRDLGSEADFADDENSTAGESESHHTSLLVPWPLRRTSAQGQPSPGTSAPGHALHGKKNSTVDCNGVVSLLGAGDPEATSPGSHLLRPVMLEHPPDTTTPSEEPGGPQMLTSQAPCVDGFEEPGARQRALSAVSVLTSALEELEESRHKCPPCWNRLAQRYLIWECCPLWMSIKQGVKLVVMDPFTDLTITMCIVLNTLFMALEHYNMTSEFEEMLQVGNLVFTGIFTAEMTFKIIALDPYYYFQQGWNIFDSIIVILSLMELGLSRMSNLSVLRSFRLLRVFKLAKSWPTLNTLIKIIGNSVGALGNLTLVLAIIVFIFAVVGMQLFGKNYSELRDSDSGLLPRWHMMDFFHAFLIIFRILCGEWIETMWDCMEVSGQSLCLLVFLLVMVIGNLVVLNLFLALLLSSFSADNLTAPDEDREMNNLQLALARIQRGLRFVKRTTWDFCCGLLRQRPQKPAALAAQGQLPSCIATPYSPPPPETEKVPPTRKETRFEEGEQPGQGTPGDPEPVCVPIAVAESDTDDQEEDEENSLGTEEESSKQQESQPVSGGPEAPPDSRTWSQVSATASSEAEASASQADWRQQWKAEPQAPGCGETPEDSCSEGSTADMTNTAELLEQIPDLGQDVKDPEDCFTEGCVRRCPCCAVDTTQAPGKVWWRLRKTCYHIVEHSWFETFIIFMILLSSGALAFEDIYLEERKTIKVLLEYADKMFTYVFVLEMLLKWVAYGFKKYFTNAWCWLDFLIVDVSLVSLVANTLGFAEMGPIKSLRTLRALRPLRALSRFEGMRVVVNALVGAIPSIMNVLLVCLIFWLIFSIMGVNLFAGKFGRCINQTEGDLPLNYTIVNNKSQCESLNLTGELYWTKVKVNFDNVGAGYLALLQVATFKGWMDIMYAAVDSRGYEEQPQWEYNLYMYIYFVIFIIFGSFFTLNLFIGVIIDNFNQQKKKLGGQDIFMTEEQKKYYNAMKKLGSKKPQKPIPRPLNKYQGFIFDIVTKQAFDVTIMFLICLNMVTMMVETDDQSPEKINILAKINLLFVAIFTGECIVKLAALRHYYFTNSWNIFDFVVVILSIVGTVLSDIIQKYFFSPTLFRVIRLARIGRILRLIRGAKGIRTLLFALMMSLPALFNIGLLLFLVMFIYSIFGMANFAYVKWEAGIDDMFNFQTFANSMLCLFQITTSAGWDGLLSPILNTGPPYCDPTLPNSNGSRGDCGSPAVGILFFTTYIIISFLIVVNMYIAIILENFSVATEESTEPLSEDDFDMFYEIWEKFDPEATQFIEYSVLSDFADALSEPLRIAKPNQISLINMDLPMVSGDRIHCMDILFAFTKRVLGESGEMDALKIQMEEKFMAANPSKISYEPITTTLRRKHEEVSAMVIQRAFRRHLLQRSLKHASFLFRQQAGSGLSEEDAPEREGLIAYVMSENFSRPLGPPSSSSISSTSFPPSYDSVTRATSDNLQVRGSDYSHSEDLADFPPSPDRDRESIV
# Sequence of hNav1.3 (Q9NY46 whole entry, looked up): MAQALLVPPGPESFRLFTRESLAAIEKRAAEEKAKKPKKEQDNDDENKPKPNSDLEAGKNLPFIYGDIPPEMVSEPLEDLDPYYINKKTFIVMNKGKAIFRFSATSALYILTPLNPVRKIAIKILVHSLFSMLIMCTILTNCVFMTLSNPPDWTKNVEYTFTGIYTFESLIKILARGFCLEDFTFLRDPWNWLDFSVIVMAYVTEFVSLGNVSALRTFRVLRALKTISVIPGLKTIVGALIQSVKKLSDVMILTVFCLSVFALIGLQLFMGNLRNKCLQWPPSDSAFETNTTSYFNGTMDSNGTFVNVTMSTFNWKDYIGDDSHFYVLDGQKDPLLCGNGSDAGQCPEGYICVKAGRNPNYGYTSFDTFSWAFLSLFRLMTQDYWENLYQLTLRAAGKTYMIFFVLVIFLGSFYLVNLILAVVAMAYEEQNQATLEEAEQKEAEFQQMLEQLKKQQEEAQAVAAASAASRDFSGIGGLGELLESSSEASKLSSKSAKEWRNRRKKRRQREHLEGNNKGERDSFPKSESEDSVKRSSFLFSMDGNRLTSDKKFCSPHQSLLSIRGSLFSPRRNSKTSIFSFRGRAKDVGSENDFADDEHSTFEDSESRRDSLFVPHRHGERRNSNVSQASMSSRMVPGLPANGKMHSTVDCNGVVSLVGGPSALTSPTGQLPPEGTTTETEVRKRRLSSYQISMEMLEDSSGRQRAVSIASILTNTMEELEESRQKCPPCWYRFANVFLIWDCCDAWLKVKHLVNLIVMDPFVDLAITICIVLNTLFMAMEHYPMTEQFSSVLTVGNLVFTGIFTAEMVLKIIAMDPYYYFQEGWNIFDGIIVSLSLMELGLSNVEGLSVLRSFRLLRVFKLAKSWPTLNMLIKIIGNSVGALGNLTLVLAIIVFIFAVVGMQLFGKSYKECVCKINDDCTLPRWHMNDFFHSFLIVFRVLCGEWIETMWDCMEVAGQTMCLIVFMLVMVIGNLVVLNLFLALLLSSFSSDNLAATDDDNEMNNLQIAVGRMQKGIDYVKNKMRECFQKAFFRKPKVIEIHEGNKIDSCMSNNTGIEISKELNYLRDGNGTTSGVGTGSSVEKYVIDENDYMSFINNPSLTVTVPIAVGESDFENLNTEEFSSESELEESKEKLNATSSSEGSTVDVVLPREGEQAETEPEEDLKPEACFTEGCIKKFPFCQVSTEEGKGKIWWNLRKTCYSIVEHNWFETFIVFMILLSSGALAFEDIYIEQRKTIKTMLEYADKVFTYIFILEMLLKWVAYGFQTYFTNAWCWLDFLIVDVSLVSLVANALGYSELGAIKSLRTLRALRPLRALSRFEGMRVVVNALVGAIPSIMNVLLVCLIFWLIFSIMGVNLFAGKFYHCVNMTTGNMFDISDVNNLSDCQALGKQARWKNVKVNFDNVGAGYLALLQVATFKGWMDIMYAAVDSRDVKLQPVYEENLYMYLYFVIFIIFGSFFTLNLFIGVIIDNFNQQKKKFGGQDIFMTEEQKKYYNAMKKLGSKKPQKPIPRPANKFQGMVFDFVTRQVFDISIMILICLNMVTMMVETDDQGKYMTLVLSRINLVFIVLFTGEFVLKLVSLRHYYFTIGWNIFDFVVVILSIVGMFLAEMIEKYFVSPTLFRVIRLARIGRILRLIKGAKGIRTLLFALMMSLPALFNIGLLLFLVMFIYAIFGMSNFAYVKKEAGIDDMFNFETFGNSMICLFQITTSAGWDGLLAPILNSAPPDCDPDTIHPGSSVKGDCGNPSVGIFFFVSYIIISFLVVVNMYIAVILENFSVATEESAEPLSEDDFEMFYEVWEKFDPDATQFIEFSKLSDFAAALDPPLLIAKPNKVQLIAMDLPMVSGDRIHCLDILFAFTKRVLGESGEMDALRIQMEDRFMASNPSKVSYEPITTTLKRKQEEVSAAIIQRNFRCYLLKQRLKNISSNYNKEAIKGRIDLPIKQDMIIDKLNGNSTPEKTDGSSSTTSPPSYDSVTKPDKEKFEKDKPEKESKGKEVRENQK
smiles,measurement,setting,value
"CC[C@H](C)[C@@H]1NC(=O)[C@@H]2CSSC[C@@H]3NC(=O)[C@H](C(C)C)NC(=O)[C@H](CC(C)C)NC(=O)[C@H](CC(N)=O)NC(=O)[C@@H]4CCCN4C(=O)[C@H](CCCNC(=N)N)NC(=O)[C@H](CSSC[C@H](NC(=O)[C@@H](N)CC(=O)O)C(=O)N[C@@H](CC(C)C)C(=O)NCC(=O)N[C@@H](C)C(=O)N[C@@H](Cc4ccccc4)C(=O)N[C@@H](CCCNC(=N)N)C(=O)N[C@@H](CCCCN)C(=O)N2)NC(=O)[C@H](CSSC[C@@H](C(=O)N[C@@H](CCCCN)C(=O)N[C@@H](Cc2ccc(O)cc2)C(=O)N[C@H](C(=O)N[C@@H](Cc2ccccc2)C(=O)N[C@@H](Cc2c[nH]c4ccccc24)C(=O)O)C(C)C)NC(=O)[C@H](Cc2c[nH]c4ccccc24)NC(=O)[C@H](CCCNC(=N)N)NC(=O)[C@H](Cc2c[nH]cn2)NC(=O)[C@H]([C@@H](C)O)NC(=O)[C@H](CCCNC(=N)N)NC(=O)[C@H](CO)NC3=O)NC(=O)[C@H](CCCCN)NC(=O)[C@H](CC(=O)O)NC(=O)[C@H](CC(N)=O)NC(=O)[C@H](CC(=O)O)NC(=O)[C@@H]2CCCN2C1=O [compound 813] (H-DCLGAFRKCIPDNDKCCRPNLVCSRTHRWCKYVFW-OH; disulfide 2-17, 9-23, 16-30)",IC50,hNav1.3,> 5 µM
same,IC50,hNav1.7,> 5 µM
same,IC50,hNav1.5,> 5 µM
"CC[C@H](C)[C@@H]1NC(=O)[C@@H]2CSSC[C@@H]3NC(=O)[C@H](C(C)C)NC(=O)[C@H](CC(C)C)NC(=O)[C@H](CC(N)=O)NC(=O)[C@@H]4CCCN4C(=O)[C@H](CCCNC(=N)N)NC(=O)[C@H](CSSC[C@H](NC(=O)[C@@H](N)CC(=O)O)C(=O)N[C@@H](CC(C)C)C(=O)NCC(=O)N[C@@H](C)C(=O)N[C@@H](CC(C)C)C(=O)N[C@@H](CCCNC(=N)N)C(=O)N[C@@H](CCCCN)C(=O)N2)NC(=O)[C@H](CSSC[C@@H](C(=O)N[C@@H](CCCCN)C(=O)N[C@@H](Cc2ccc(O)cc2)C(=O)N[C@H](C(=O)N[C@@H](Cc2ccccc2)C(=O)N[C@@H](Cc2c[nH]c4ccccc24)C(=O)O)C(C)C)NC(=O)[C@H](Cc2c[nH]c4ccccc24)NC(=O)[C@H](CCCNC(=N)N)NC(=O)[C@H](Cc2c[nH]cn2)NC(=O)[C@H]([C@@H](C)O)NC(=O)[C@H](CCCNC(=N)N)NC(=O)[C@H](CO)NC3=O)NC(=O)[C@H](CCCCN)NC(=O)[C@H](CC(=O)O)NC(=O)[C@H](CC(N)=O)NC(=O)[C@H](CC(=O)O)NC(=O)[C@@H]2CCCN2C1=O [compound 814] (H-DCLGALRKCIPDNDKCCRPNLVCSRTHRWCKYVFW-OH; disulfide 2-17, 9-23, 16-30)",IC50,hNav1.3,0.6 µM
same,IC50,hNav1.7,0.6 µM
same,IC50,hNav1.5,> 5 µM
"CC[C@H](C)[C@@H]1NC(=O)[C@@H]2CSSC[C@@H]3NC(=O)[C@H](C(C)C)NC(=O)[C@H](CC(C)C)NC(=O)[C@H](CC(N)=O)NC(=O)[C@@H]4CCCN4C(=O)[C@H](CCCNC(=N)N)NC(=O)[C@H](CSSC[C@H](NC(=O)[C@H](CC(=O)O)NC(=O)[C@H](CO)NC(=O)CN)C(=O)N[C@@H](CC(C)C)C(=O)NCC(=O)N[C@@H](C)C(=O)N[C@@H](Cc4ccccc4)C(=O)N[C@@H](CCCNC(=N)N)C(=O)N[C@@H](CCCCN)C(=O)N2)NC(=O)[C@H](CSSC[C@@H](C(=O)N[C@@H](CCCCN)C(=O)N[C@@H](Cc2ccc(O)cc2)C(=O)N[C@H](C(=O)N[C@@H](Cc2ccccc2)C(=O)N[C@@H](Cc2c[nH]c4ccccc24)C(=O)O)C(C)C)NC(=O)[C@H](Cc2c[nH]c4ccccc24)NC(=O)[C@H](CCCNC(=N)N)NC(=O)[C@H](Cc2c[nH]cn2)NC(=O)[C@H]([C@@H](C)O)NC(=O)[C@H](CCCNC(=N)N)NC(=O)[C@H](CO)NC3=O)NC(=O)[C@H](CCCCN)NC(=O)[C@H](CC(=O)O)NC(=O)[C@H](CC(N)=O)NC(=O)[C@H](CC(=O)O)NC(=O)[C@@H]2CCCN2C1=O [compound 815] (H-GSDCLGAFRKCIPDNDKCCRPNLVCSRTHRWCKYVFW-OH; disulfide 4-19, 11-25, 18-32)",IC50,hNav1.3,> 5 µM
same,IC50,hNav1.7,> 5 µM
same,IC50,hNav1.5,> 5 µM
